Patent US12600728B2, “Interleukin-17 inhibitors” (priority 2020, dated 2026)

How the values were obtained:
[1] = target: biotinylated human IL-17A / AF647-labeled human IL-17RA (Homo sapiens, UniProt Q16552); experiment: Human IL-17A×IL-17RA TR-FRET assay; assay type: binding; conditions: TR-FRET, 5 nM IL-17A, 30 nM IL-17RA; read-out: IL17AA FRET/ IL17Rawt IC50
Method in brief: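 Compounds tested in duplicate at each concentration; neutral controls contain all components with DMSO in place of compound.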

[2] = target: recombinant human IL-17AA (Homo sapiens, UniProt Q16552); experiment: IL-6 release from NHDF cells, IL-17AA plus TNF-α stimulation; assay type: cell-based; conditions: NHDF cells, IL-17AA 30 pM + TNF-α 6 pM, 24 hours, IL-6 by ELISA; read-out: IL17AA + TNF IC50 IL-6
Method in brief: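 ELISA measured IL-6 in supernatants after 24 h at 37° C of NHDF cells with a compound/cytokine cocktail, pre-mixed 30 min at room temperature. Duplicates; 0.1% DMSO or 20% plasma final. IC50 from IL-6 remaining after subtracting the TNF-α-alone signal.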

Chain of biotinylated human IL-17A / AF647-labeled human IL-17RA (Q16552 24-155): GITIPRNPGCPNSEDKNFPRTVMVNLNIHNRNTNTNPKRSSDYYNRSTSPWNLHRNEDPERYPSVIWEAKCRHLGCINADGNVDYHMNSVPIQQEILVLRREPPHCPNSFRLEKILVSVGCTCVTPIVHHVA
Chain of recombinant human IL-17AA (Q16552 24-155): as above

IC50 [1] [nM] | IC50 [2] [nM] | Compound
118 | 15.5 | Cc1cc[n+]([O-])c(C)c1-c1ccc(NC(=O)[C@@H](NC(=O)c2ccn3c2CNCC3)C2CCCCCC2)cc1 [Example 189, (S)-3-(4-(2-cycloheptyl-2-(1,2,3,4-tetrahydropyrrolo[1,2-a]pyrazine-8-carboxamido)acetamido)phenyl)-2,4-dimethylpyridine 1-oxide]
123 | 278 | Cc1cc[n+]([O-])c(C)c1-c1ccc(NC(=O)[C@H](Cc2ccccc2Cl)NC(=O)c2ccc3n2CCNC3)cc1 [Example 190, (S)-3-(4-(3-(2-chlorophenyl)-2-(1,2,3,4-tetrahydropyrrolo[1,2-a]pyrazine-6-carboxamido)propanamido)phenyl)-2,4-dimethylpyridine 1-oxide]
128 | 18.5 | CC(=O)N1CCn2c(ccc2C(=O)N[C@H](C(=O)Nc2ccc(-c3c(C(F)(F)F)cc[n+]([O-])c3C)cc2)C2CCCCC2)C1 [Example 191, (S)-3-(4-(2-(2-acetyl-1,2,3,4-tetrahydropyrrolo[1,2-a]pyrazine-6-carboxamido)-2-cyclohexylacetamido)phenyl)-2-methyl-4-(trifluoromethyl)pyridine 1-oxide]
97.3 | 47 | Cc1cc[n+]([O-])c(C)c1-c1ccc(NC(=O)[C@@H](NC(=O)c2ccnn2C)C(c2ccccc2)c2ccccc2)cc1 [Example 193, (S)-2,4-dimethyl-3-(4-(2-(1-methyl-1H-pyrazole-5-carboxamido)-3,3-diphenylpropanamido)phenyl)pyridine 1-oxide]
165 | 47 | CC(=O)N1CCn2c(ccc2C(=O)NC(C(=O)Nc2ccc(-c3c(Cl)cc[n+]([O-])c3C)c(F)c2)[C@H]2C[C@@H]3C[C@@H]3C2)C1 (stereo partly drawn) [Example 194, 3-(4-(2-(2-acetyl-1,2,3,4-tetrahydropyrrolo[1,2-a]pyrazine-6-carboxamido)-2-((1R,3s,5S)-bicyclo[3.1.0]hexan-3-yl)acetamido)-2-fluorophenyl)-4-chloro-2-methylpyridine 1-oxide]
178 | 28.5 | CC(=O)N1CCn2c(ccc2C(=O)N[C@H](C(=O)Nc2ccc(-c3c(C)cc[n+]([O-])c3C)cc2F)C2CCCCCC2)C1 [Example 195, (S)-3-(4-(2-(2-acetyl-1,2,3,4-tetrahydropyrrolo[1,2-a]pyrazine-6-carboxamido)-2-cycloheptylacetamido)-3-fluorophenyl)-2,4-dimethylpyridine 1-oxide]
181 | 12.6 | Cc1c(-c2ccc(NC(=O)[C@@H](NC(=O)c3ccc4n3CCNC4)C3CCC(F)(F)CC3)cc2)c(Cl)cc[n+]1[O-] [Example 196, (S)-4-chloro-3-(4-(2-(4,4-difluorocyclohexyl)-2-(1,2,3,4-tetrahydropyrrolo[1,2-a]pyrazine-6-carboxamido)acetamido)phenyl)-2-methylpyridine 1-oxide]
213 | 121 | Cc1cc[n+]([O-])c(C)c1-c1ccc(NC(=O)[C@@H](NC(=O)c2ccnn2C)[C@H]2CCC[C@H](F)CC2)cc1 [Example 197, 3-(4-((S)-2-((1S,4S)-4-fluorocycloheptyl)-2-(1-methyl-1H-pyrazole-5-carboxamido)acetamido)phenyl)-2,4-dimethylpyridine 1-oxide]
237 | 11.5 | CC(=O)N1CCn2c(ccc2C(=O)N[C@H](C(=O)Nc2ccc(-c3c(Cl)cc[n+]([O-])c3C)cc2)C2CCCCC2)C1 [Example 199, (S)-3-(4-(2-(2-acetyl-1,2,3,4-tetrahydropyrrolo[1,2-a]pyrazine-6-carboxamido)-2-cyclohexylacetamido)phenyl)-4-chloro-2-methylpyridine 1-oxide]
246 | 416 | Cc1cc[n+]([O-])c(C)c1-c1ccc(NC(=O)[C@@H](NC(=O)c2ccc3n2CCNC3)C2CCC(F)CC2)cc1 (stereo partly drawn) [Example 200, 3-(4-((2S)-2-(4-fluorocyclohexyl)-2-(1,2,3,4-tetrahydropyrrolo[1,2-a]pyrazine-6-carboxamido)acetamido)phenyl)-2,4-dimethylpyridine 1-oxide]
